This is an account of results in patent US11603355B2, “Charged ion channel blockers and methods for use” (Nocion Therapeutics, Inc., priority 2019, dated 2023).

Data set [1] deals with T1, NaV1.7 (Homo sapiens, UniProt Q15858).
T1 construct: expressed in transfected cells; host or cells: HEK293 (tetracycline-inducible)
Kind of data set: Manual patch clamp, internal block of NaV1.7 current. The data set is classed as cell-based. The conditions noted are these: compound in internal solution, HEK293 cells, read-out: Nav1.7 Intracellular Inhibition; for inhibition at 3 µM: % inhibition at 3 μM test concentration; for inhibition at 10 µM: % inhibition at 10 μM test concentration. An outline of the steps:
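Whole-cell recordings at room temperature in tetracycline-induced HEK293 cells, compound in CsCl internal solution (pH 7.2), held at −100 mV with 10 ms steps to −20 mV. Four 30 s 5 Hz trains after 5 min baseline; fraction of peak inward current remaining computed as Itest/Ibaseline.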
(In general: Patch clamp records ionic current or voltage across a cell membrane.)

The target in data set [2] is T1, NaV1.7. The experiment in a line: Manual patch clamp, external block of NaV1.7 current. The conditions noted are these: % inhibition at 10 μM test concentration, compound in external solution, HEK293 cells, read-out: Nav1.7 Extracellular Inhibition. The class given is cell-based. How it is done: Representative compounds of the invention were synthesized according to the described methods and tested for the ability to inhibit voltage-gated sodium channels.
NaV1.7 was expressed in HEK293 cells upon induction with tetracycline. Cells were cultured in DMEM containing 10% dialyzed Fetal Bovine Serum (VWR, Radnor, Pa.), 1% Glutamax (VWR, Radnor, Pa.), 1% Penicillin-Streptomycin (VWR, Radnor, Pa.), 100 mg/L Hygromycin (Thermo Fisher Scientific, Waltham, Mass. and 5 mg/L Blasticidin (Alfa Aesar, Haverhill, Mass.). Cells were grown and maintained at 37° C. in a humidified environment containing 10% CO2 in air. Cells were detached from the culture flask for passage and harvested using 0.05% Trypsin-EDTA (Thermo Fisher Scientific, Waltham, Mass.). To induce NaV1.7, cells were induced with tetracycline (0.1-1 μg/mL, IBI Scientific, Peosta, Iowa) the day before recording and plated onto 24-well plates. Cells were washed with DPBS (VWR, Radnor, Pa.), trypsinized and then triturated five times in 10 mL of growth media to break apart cell aggregates. For one 24-well plate, 2 mL of cell suspension was mixed with 23 mL of fresh growth media and 0.1-1 μg/mL tetracycline added. 1 ml of mixed media with cells was then added to each well of a 24-well plate, with a 12 mm coverslip already placed in the bottom of the well. Cells were then incubated in 37° C. and 10% CO2 overnight.
The intracellular solution contained the following (in mM) CsCl 135, NaCl 10, EGTA 10, HEPES 10, MgCl2 2, adjusted to pH 7.2 with CsOH. The external solution was a normal Ringer solution containing (in mM) NaCl 155, HEPES 10, glucose 10, KCl 3.5, CaCl2 1.5, MgCl2 1 adjusted to pH 7.4 with NaOH. CsCl is from Alfa Aesar, Haverhill, Mass. All other chemicals are from Sigma-Aldrich, St. Louis, Mo. In order to test the degree of internal block by test compounds the compounds were dissolved in internal solution at the indicated test concentration. […] In order to test the degree of external block by test compounds the compounds were dissolved in external solution at the indicated test concentration.
18-24 hours after cells were induced with tetracycline, coverslips were placed into a chamber filled with Normal Ringer solution at room temperature and the chamber placed on a microscope. Pipettes were pulled from borosilicate glass on a P97 puller (Sutter Instrument, Novato, Calif.) and polished with a MF-830 Microforge (Narishige International USA, Inc., Amityville, N.Y.) to have a resistance of 1.5-2.5 MΩ when filled with CsCl internal solution at room temperature. Healthy cells (those that are round and translucent with no visible blemishes) were chosen for seal formation. A seal was formed between the pipette and the cell, and a brief pulse of suction was used to “break in” and establish the whole-cell configuration. The membrane potential was held at −100 mV before the voltage protocol began. Only cells with series resistance between 1.5-5 MΩ were retained for analysis. The voltage protocol was as follows: Cells were held at −100 mV for 12 ms followed by a hyperpolarizing step to −105 mV for 12 ms to monitor the leak. Cells were then stepped back to −100 mV for 40 ms. Cells were then depolarized to −20 mV for 10 ms and then returned to −100 mV for 26 ms.
Once the recording was started, the voltage protocol was run at 30 second intervals for 5 minutes to get a stable baseline. This is followed by 5 Hz stimulation of the same voltage protocol run until the end of experiment. […] The test compound is added for 5 minutes before washing out with normal Ringer's solution. Currents were recorded using PatchMaster software with Heka EPC10 (HEKA Electronics, Lambrecht, Germany). Only cells with inward current amplitudes at −20 mV between 400 pA and 4 nA were accepted. In addition, cells having leak currents greater than 10% of their current amplitudes were discarded. […]

The nature of data set [3]: PAMPA membrane permeability assay. The data set is classed as in vitro ADME. As to conditions: permeability coefficient, pH 7.4 buffer, GIT lipid, 4 hours incubation. An outline of the steps:
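Passive diffusion across a GIT-lipid-painted artificial membrane at pH 7.4, with a 50 uM donor stock diluted from DMSO and a 4 h incubation. UV spectra of the donor, acceptor and reference plates were read, and the permeability coefficient was calculated from the AUCs, in 10^−6 cm/s.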
(In general: The PAMPA barrier holds no transporters, so it reflects passive diffusion.)

Data set [4] deals with T1, NaV1.7. The experiment in a line: Automated patch clamp (Qube 384), internal block of NaV1.7. The class given is cell-based. The conditions noted are these: IC50, compound in internal solution, HEK293 cells, read-out: Nav1.7 Intracellular Inhibition. On the procedure:
(§1) NaV1.7 was expressed in HEK293 cells upon induction with tetracycline. Cells were cultured in DMEM containing 10% dialyzed Fetal Bovine Serum (VWR, Radnor, Pa.), 1% Glutamax (VWR, Radnor, Pa.), 1% Penicillin-Streptomycin (VWR, Radnor, Pa.), 100 mg/L Hygromycin (Thermo Fisher Scientific, Waltham, Mass. and 5 mg/L Blasticidin (Alfa Aesar, Haverhill, Mass.). Cells were grown and maintained at 37° C. in a humidified environment containing 10% CO2 in air. Cells were detached from the culture flask for passage and harvested using 0.05% Trypsin-EDTA (Thermo Fisher Scientific, Waltham, Mass.). To induce NaV1.7, cells were induced with tetracycline (0.1-1 μg/mL, IBI Scientific, Peosta, Iowa) the day before recording.
(§2) Before experiments, cells were washed with DPBS (VWR, Radnor, Pa.), digested with Detachin (VWR Radnor, Pa.) and then triturated 10 times in CHO Serum-Free Media (VWR Radnor, Pa.) to resuspend the cells and to break apart cell aggregates. Cells were counted and the final concentration was set at 2-5 million cells per mL.
(§3) The intracellular solution contained the following: 140 mM CsF, 1 mM/5 mM EGTA/CsOH, 10 mM HEPES, 10 mM NaCl, adjusted to pH 7.3 with CsOH, and osmolality to 320 with OSM solution. The external solution contained the following: 145 mM NaCl, 4 mM KCl, 1 mM MgCl2, 2 mM CaCl2), 10 mM HEPES, 10 mM Glucose, adjusted to pH 7.4 with CsOH and osmolality to 305 with OSM solution. The OSM solution was a normal Ringer solution containing (in mM) NaCl 155, HEPES 10, sucrose, KCl 3.5, CaCl2) 1.5, MgCl2 1 adjusted to pH 7.4 with NaOH. All chemicals are from Sigma-Aldrich, St. Louis, Mo. In order to test the degree of internal block by test compounds, the compounds were dissolved in internal solution at the indicated test concentration. […] In order to test the degree of external block by test compounds the compounds were dissolved in external solution at the indicated test concentration.
(§4) Automated Patch Clamps were performed on Qube 384 (Sophion Bioscience, Woburn Mass.) with multihole Qchips at a temperature setting of 22 degrees. The whole cells configuration was formed with default Qube seal and break-in parameter. The membrane potential was held at −100 mV before the voltage protocol began. Two voltage protocols were followed.
(§5) Step 1: Cells were held at −100 mV with a depolarized pulse to −20 mV for 10 ms, the interval was set at 5 s. Currents were corrected by default leak subtraction from every pulse. The duration was set at 5 mins.
(§6) Step 2: Cells were held at −100 mV with a depolarized pulse to −20 mV for 10 ms. The frequency was 5 Hz. Currents were corrected by leak subtraction calculated before step 2. The duration was set at 4 mins.
After Step 2, the Qchip was removed from the recording chamber. The internal solution was changed with solutions containing test compounds. Qchips were held at −100 mV without pulsing after being replaced in the recording chamber. The total solution switching time was 8 minutes. After the internal solution exchange, Cells were recorded and step 2 for repeated for 10 minutes.
Data analysis was performed by Sophion Analyzer. Cells were filtered with minimum 50 MOhm seal resistance and minimum 5 nA starting current. The rundown of the currents was corrected with control cells (Non-Drug). The remaining was calculated by averaging last 3 points in the end of experiments. The base line was calculated as the average of last 3 points of Step 2.
IC50 curves were plotted with DR-plots/Hill function (a dose-response plot with a Hill fit).
Representative examples of the invention were tested for intracellular inhibition of NaV 1.7 in the automated patch clamp assay. Activity Range is reported as IC50: “++++” (<0.3 μM), “+++” (0.3-1 μM), “++” (1-3 μM) or “+” (3-10 μM).

Data set [5] concerns the target T1, NaV1.7. Kind of data set: Automated patch clamp (Qube 384), external block of NaV1.7. The data set is classed as cell-based. As to conditions: IC50, compound in external solution, HEK293 cells, read-out: Nav1.7 Extracellular Inhibition. How it is done: as §1, §2, §3, §4, §5, §6
After Step 2, the external solution was changed with solutions containing test compounds. Qchips were held at −100 mV without pulsing. The total solution switching time was 8 minutes. After the external solution exchange, cells were recorded using the same procedure as step 2 for 10 minutes.
Data analysis was performed by Sophion Analyzer. Data were corrected with control cells (Non-Drug). The IC50 data were plotted with DR-plots/Hill function (a dose-response plot with a Hill fit). Representative examples of the invention were tested for extracellular inhibition of NaV 1.7 in the automated patch clamp assay. Activity Range is reported as IC50: “++++” ([…], “+++” (1-3 μM), “++” ([…]) or “+” (>10 μM). The results are presented below.

T1 sequence (Q15858 whole entry): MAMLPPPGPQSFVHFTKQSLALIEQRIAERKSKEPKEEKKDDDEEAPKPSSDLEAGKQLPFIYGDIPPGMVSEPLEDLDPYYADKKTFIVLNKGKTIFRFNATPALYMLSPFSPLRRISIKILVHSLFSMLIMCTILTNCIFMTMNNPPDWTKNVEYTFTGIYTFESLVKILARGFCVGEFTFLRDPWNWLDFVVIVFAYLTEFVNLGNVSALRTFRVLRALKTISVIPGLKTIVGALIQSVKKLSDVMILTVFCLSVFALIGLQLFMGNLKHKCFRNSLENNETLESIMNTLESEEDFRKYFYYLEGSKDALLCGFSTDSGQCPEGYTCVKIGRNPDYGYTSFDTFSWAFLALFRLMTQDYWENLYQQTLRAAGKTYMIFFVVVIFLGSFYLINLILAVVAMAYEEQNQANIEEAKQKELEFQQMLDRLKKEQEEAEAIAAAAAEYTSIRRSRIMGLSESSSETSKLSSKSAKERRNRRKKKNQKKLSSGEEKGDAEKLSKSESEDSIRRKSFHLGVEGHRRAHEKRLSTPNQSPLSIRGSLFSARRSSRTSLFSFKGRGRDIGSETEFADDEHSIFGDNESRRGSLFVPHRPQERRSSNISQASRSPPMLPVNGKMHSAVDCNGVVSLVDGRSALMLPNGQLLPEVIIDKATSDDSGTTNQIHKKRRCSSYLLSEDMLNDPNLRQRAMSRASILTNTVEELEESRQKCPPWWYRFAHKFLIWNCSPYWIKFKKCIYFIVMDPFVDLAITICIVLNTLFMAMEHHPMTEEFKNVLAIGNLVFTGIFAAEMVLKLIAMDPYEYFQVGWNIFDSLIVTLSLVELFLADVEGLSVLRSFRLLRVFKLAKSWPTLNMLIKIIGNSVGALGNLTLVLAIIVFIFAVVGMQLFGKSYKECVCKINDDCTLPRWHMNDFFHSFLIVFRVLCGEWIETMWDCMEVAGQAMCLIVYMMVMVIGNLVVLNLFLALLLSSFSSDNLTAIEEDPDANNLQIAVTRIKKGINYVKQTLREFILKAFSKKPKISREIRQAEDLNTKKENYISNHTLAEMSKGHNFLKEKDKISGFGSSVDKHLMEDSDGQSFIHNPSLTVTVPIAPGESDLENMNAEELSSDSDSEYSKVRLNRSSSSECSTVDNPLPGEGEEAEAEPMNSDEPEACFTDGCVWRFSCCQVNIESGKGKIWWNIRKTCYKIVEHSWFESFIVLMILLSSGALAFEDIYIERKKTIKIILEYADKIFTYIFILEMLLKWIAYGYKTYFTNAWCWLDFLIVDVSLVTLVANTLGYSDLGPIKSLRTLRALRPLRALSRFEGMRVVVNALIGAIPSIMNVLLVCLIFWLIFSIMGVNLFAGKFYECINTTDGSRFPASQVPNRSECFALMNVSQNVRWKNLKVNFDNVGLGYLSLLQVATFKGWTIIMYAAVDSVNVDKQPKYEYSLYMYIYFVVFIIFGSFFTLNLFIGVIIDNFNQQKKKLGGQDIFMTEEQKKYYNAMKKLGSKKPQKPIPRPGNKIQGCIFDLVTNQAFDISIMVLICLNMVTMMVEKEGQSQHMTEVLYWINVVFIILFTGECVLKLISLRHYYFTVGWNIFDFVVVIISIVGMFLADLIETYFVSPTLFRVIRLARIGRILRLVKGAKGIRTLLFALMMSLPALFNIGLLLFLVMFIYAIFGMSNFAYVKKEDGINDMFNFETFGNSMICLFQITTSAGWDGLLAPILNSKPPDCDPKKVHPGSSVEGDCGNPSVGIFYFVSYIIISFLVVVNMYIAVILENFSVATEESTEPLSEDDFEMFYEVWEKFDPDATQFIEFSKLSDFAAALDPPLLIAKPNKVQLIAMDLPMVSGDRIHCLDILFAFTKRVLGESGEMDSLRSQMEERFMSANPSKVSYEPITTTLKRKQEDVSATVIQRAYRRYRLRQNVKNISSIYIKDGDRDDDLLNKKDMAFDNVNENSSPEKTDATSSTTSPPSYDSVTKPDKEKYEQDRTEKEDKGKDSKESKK

By inhibition is commonly meant the percentage by which the read-out fell short of the control. Take `Cc1cccc(C)c1NC(=O)C[N+]1(Cc2ccccc2)CCCCCC1.[Br-]` [Compound 3A, 1-benzyl-1-(2-((2,6-dimethylphenyl)amino)-2-oxoethyl) azepan-1-ium bromide]: in data set [1], the inhibition at 3 µM is greater than 90% and the inhibition at 10 µM is greater than 95%. Moreover, the inhibition at 10 µM in data set [2] fell in the range of 40 to 70%. The “PAMPA (10^−6 cm/s)” value in data set [3] is “+ (“+” (<0.1 10^−6 cm/s))”.
With `Cc1cccc(C)c1NC(=O)C[N+]1(Cc2ccccc2)CCCCC1` [Compound 4A, 1-benzyl-1-(2-((2,6-dimethylphenyl)amino)-2-oxoethyl)piperidin-1-ium bromide], in data set [1], the inhibition at 3 µM lay within 70 to 90%. For the same compound, the inhibition at 10 µM in data set [1] is 70 to 95%; in data set [2], less than 40%.
On to `CCC(C(=O)Nc1c(C)cccc1C)[N+]1(Cc2ccccc2)CCCCC1.[Br-]` (stereo not drawn) [Compound 6A, 1-benzyl-1-(1-((2,6-dimethylphenyl)amino)-1-oxobutan-2-yl)piperidin-1-ium bromide], for which, in data set [1], the inhibition at 3 µM lay in the range of 70 to 90% and the inhibition at 10 µM lay in the range of 70 to 95%. Also, the inhibition at 10 µM in data set [2] is less than 40%. In addition, the “PAMPA (10^−6 cm/s)” value in data set [3] is given as “+ (“+” (<0.1 10^−6 cm/s))”.
For `CCC(C(=O)Nc1c(C)cccc1C)[N+]1(Cc2ccccc2F)CCCCC1` (stereo not drawn) [Compound 9A], in data set [1], the inhibition at 3 µM fell in the range of 70 to 90%. Moreover, the figures for the inhibition at 10 µM in data set [1] and in data set [2] were greater than 95% and less than 40%, respectively. Further, the “PAMPA (10^−6 cm/s)” value in data set [3] was “+ (“+” (<0.1 10^−6 cm/s))”.
With `Br.CCCCOC(=O)C1CCC[N+](CC(=O)Nc2c(C)cccc2C)(Cc2ccccc2)C1` (stereo not drawn) [Compound 49A], the IC50 in data set [4] was in the range of 1 to 3 µM; in data set [5] it was 3 to 10 µM. Further, the “PAMPA (10^−6 cm/s)” value in data set [3] is listed as “+ (“+” (<0.1 10^−6 cm/s))”.
For `Cc1cccc(C)c1NC(=O)C[N+]1(Cc2ccccc2)CCCC(C(=O)OC2CCCCC2)C1.[Br-]` (stereo not drawn) [Compound 51A], in that order: 3 to 10 µM, 3 to 10 µM and “+ (“+” (<0.1 10^−6 cm/s))”.
In the case of `Cc1cccc(C)c1NC(=O)C[N+]1(Cc2ccccc2)CCCC(C(=O)NCC(C)C)C1.[Br-]` (stereo not drawn) [Compound 58A], the results for the IC50 in data set [4] and in data set [5] were 1 to 3 µM and 3 to 10 µM, respectively. For the same compound, the “PAMPA (10^−6 cm/s)” value in data set [3] is recorded as “+ (“+” (<0.1 10^−6 cm/s))”.
Turning to `Cc1cccc(C)c1NC(=O)C[N+]1(Cc2ccccc2)CCCC(C(=O)N2CCCCCC2)C1` (stereo not drawn) [Compound 64A], the IC50 in data set [4] fell in the range of 1 to 3 µM; in data set [5], 3 to 10 µM. Moreover, the “PAMPA (10^−6 cm/s)” value in data set [3] is on record as “+ (“+” (<0.1 10^−6 cm/s))”.
As for `CCc1cccc(C)c1NC(=O)C[N+]1(Cc2ccccc2)CCCCCC1` [Compound 70A], in data set [1], the inhibition at 3 µM is greater than 90%. Further, the inhibition at 10 µM in data set [2] lay within 40 to 70%. For the same compound, in data set [4], the IC50 lay in the range of 0.3 to 1 µM.
As for `CC[N+](CC)(CCS(=O)(=O)c1c(C)cccc1C)Cc1ccccc1` [Compound 87A, N-benzyl-2-((2,6-dimethylphenyl)sulfonyl)-N, N-diethylethan-1-aminium bromide], the IC50 in data set [4] is 3 to 10 µM; in data set [5], greater than 10 µM.
With `Cc1cccc(C)c1S(=O)(=O)CC[N+]1(Cc2ccccc2)CCCCCC1` [Compound 88A, 1-benzyl-1-(2-((2,6-dimethylphenyl)sulfonyl)ethyl) azepan-1-ium bromide], the IC50 in data set [4] is 3 to 10 µM; in data set [5], greater than 10 µM.
Turning to `Cc1cccc(C)c1N1CCCC([N+]2(Cc3ccccc3)CCCCC2)C1=O` (stereo not drawn) [Compound 92A], the IC50 in data set [4] was 1 to 3 µM; in data set [5], greater than 10 µM.
